Consider 20 compounds from patent US8399683B2 (TetraLogic Pharmaceuticals, priority 2008, dated 2013).

One assay addresses T1, XIAP BIR-3 (Homo sapiens, UniProt P98170).
T1 construct: 40 nM of the respective IAP BIR3
Put plainly: Fluorescence polarization binding affinity to XIAP BIR-3 (competition with AbuRPF-K(5-Fam)-NH2). The settings on record: 5 nM labeled peptide, 40 nM BIR3, 15 min at RT, pH 7.5; reported as ranges. The method, boiled down: (§1)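 Test peptides at varied concentrations competed with 5 nM fluorescent Smac-mimetic tracer for 40 nM BIR3 domain, 15 min at RT in 0.1M potassium phosphate pH 7.5 with […] bovine g-globulin. Polarization (mP) read at 485/520 nm; KD reported in bins (A=<0.1 μM, B=0.1–1 μM, C>1–10 μM, D=>10 μM).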
In general terms: Fluorescence polarisation rises when a labelled molecule tumbles more slowly, as on binding a larger partner.

In a further assay the test system is SK-OV-3 cells. Put plainly: Growth inhibition of ovarian cancer cell line SK-OV-3 (MTT assay, cell survival). The class given is cell-based. Particulars: Homo sapiens, drug concentration that results in 50% cell survival, 72 hrs incubation, reported as ranges. In outline:
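After overnight seeding in McCoy's medium with 10% FBS, SK-OV-3 cells were exposed to compound at 0.003-10 μM for 72 hrs at 37° C. MTT was then added for 3 h, with DMSO solubilization and OD read at 535 nm. CC50 is the concentration giving 50% survival relative to untreated control, reported as ranges.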
(In general: Tetrazolium assays rely on reduction of a dye to a coloured formazan, in cell work by metabolically active cells.)

The target of another assay is cIAP-1 BIR-3 (Homo sapiens, UniProt Q13490). Put plainly: Fluorescence polarization binding affinity to cIAP-1 BIR-3 (competition with AbuRPF-K(5-Fam)-NH2). The settings on record: 5 nM labeled peptide, 40 nM BIR3, 15 min at RT, pH 7.5; reported as ranges; read-out: KD (c-IAP-1 BIR3). The method, boiled down: as §1

SMILES strings stand for the structures.

Chain of cIAP-1 BIR-3 (Q13490 266-352 limits assumed): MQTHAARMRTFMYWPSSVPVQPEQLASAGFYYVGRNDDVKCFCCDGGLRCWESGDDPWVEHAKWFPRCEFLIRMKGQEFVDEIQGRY
T1 sequence (P98170 241-356 limits assumed): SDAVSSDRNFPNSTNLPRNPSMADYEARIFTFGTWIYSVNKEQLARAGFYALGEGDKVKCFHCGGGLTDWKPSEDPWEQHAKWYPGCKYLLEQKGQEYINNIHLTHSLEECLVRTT

As usually defined, the Kd is the constant that tells how readily two partners part at equilibrium. The CC50 is the concentration that lowers cell viability or growth by half. The low end stands for greater toxicity to the cells, the high end for lower toxicity to the cells. As to `CN[C@@H](C)C(=O)N[C@@H](COC)C(=O)N1CC[C@@H]2[C@H]1[C@@H](c1c[nH]c3cc(F)ccc13)CN2S(C)(=O)=O` [Example 54], the Kd on XIAP BIR-3 and on cIAP-1 BIR-3 was < 100 nM each time. In addition, the cytotoxic concentration (CC50) with SK-OV-3 cells fell in the range of 100 to 1000 nM.
`CN[C@@H](C)C(=O)N[C@H](C(=O)N1CC[C@@H]2[C@H]1[C@H](c1c[nH]c3cc(F)ccc13)CN2S(C)(=O)=O)[C@@H](C)O` [Example 55, N-{1-[6-(6-Fluoro-1H-indol-3-yl)-4-methanesulfonyl-hexahydro-pyrrolo[3,2-b]pyrrole-1-carbonyl]-2-hydroxy-propyl}-2-methylamino-propionamide]: the Kd at XIAP BIR-3 was > 10000 nM; at cIAP-1 BIR-3, 1000 to 10000 nM. Moreover, the CC50 in the assay with SK-OV-3 cells was > 10000 nM.
In the case of `CN[C@@H](C)C(=O)N[C@H](C(=O)N1CC[C@@H]2[C@H]1[C@@H](c1c[nH]c3cc(F)ccc13)CN2S(C)(=O)=O)C(C)O` (stereo partly drawn) [Example 56], the dissociation constant Kd on XIAP BIR-3 and at cIAP-1 BIR-3 was < 100 nM in each case. Moreover, in the assay with SK-OV-3 cells, the cytotoxic concentration (CC50) is < 100 nM.
Turning to `CN[C@@H](C)C(=O)N[C@H](C(=O)N1CC[C@@H]2[C@H]1[C@H](c1c[nH]c3cc(F)ccc13)CN2S(C)(=O)=O)[C@@H](C)OC` [Example 57, N-{1-[6-(6-Fluoro-1H-indol-3-yl)-4-methanesulfonyl-hexahydro-pyrrolo[3,2-b]pyrrole-1-carbonyl]-2-methoxy-propyl}-2-methylamino-propionamide], the dissociation constant (Kd) on XIAP BIR-3 is > 10000 nM; at cIAP-1 BIR-3 it was 100 to 1000 nM. Further, the CC50 with SK-OV-3 cells is > 10000 nM.
`CN[C@@H](C)C(=O)N[C@H](C(=O)N1CC[C@@H]2[C@H]1[C@@H](c1c[nH]c3cc(F)ccc13)CN2S(C)(=O)=O)[C@@H](C)OC` [Example 58, N-{1-[6-(6-Fluoro-1H-indol-3-yl)-4-methanesulfonyl-hexahydro-pyrrolo[3,2-b]pyrrole-1-carbonyl]-2-methoxy-propyl}-2-methylamino-propionamide]: the Kd at XIAP BIR-3 and on cIAP-1 BIR-3 was < 100 nM each time. Also, the CC50 in the assay on SK-OV-3 cells is < 100 nM.
For the compound `CN[C@@H](C)C(=O)N[C@H](C(=O)N1CC[C@@H]2[C@H]1[C@@H](c1c[nH]c3cc(F)ccc13)CN2C(C)=O)C1CCCCC1` [Example 59, N-{2-[4-Acetyl-6-(6-fluoro-1H-indol-3-yl)-hexahydro-pyrrolo[3,2-b]pyrrol-1-yl]-1-cyclohexyl-2-oxo-ethyl}-2-methylamino-propionamide], the dissociation constant (Kd) at XIAP BIR-3 and on cIAP-1 BIR-3 was < 100 nM throughout. The CC50 in the assay with SK-OV-3 cells is < 100 nM.
Regarding `CC[C@H](NC(=O)[C@H](C)NC)C(=O)N1CC[C@@H]2[C@H]1[C@@H](c1c[nH]c3cc(F)ccc13)CN2C(C)=O` [Example 60, N-{1-[4-Acetyl-6-(6-fluoro-1H-indol-3-yl)-hexahydro-pyrrolo[3,2-b]pyrrole-1-carbonyl]-propyl}-2-methylamino-propionamide], the Kd at XIAP BIR-3 and on cIAP-1 BIR-3 was < 100 nM throughout. In addition, in the assay on SK-OV-3 cells, the CC50 was < 100 nM.
In the case of `CN[C@@H](C)C(=O)N[C@H](C(=O)N1CC[C@@H]2[C@H]1[C@@H](c1c[nH]c3cc(F)ccc13)CN2C(C)=O)C(C)C` [Example 61, N-{1-[4-Acetyl-6-(6-fluoro-1H-indol-3-yl)-hexahydro-pyrrolo[3,2-b]pyrrole-1-carbonyl]-2-methyl-propyl}-2-methylamino-propionamide], the Kd at XIAP BIR-3 and on cIAP-1 BIR-3 was < 100 nM each time. Also, the CC50 in the assay with SK-OV-3 cells was < 100 nM.
`CN[C@@H](C)C(=O)N[C@H](C(=O)N1CC[C@@H]2[C@H]1[C@@H](c1c[nH]c3cc(F)ccc13)CN2C(C)=O)C(C)(C)C` [Example 62, N-{1-[4-Acetyl-6-(6-fluoro-1H-indol-3-yl)-hexahydro-pyrrolo[3,2-b]pyrrole-1-carbonyl]-2,2-dimethyl-propyl}-2-methylamino-propionamide]: the Kd at XIAP BIR-3 and at cIAP-1 BIR-3 was < 100 nM throughout. In the assay with SK-OV-3 cells, the CC50 was < 100 nM.
Take `CN[C@@H](C)C(=O)N[C@@H](CO)C(=O)N1CC[C@@H]2[C@H]1[C@@H](c1c[nH]c3cc(F)ccc13)CN2C(C)=O` [Example 63, N-{2-[4-Acetyl-6-(6-fluoro-1H-indol-3-yl)-hexahydro-pyrrolo[3,2-b]pyrrol-1-yl]-1-hydroxymethyl-2-oxo-ethyl}-2-methylamino-propionamide]: the dissociation constant Kd at XIAP BIR-3 and on cIAP-1 BIR-3 was < 100 nM in each case. The compound further returned a CC50 with SK-OV-3 cells of 1000 to 10000 nM.
Consider `CN[C@@H](C)C(=O)N[C@@H](COC)C(=O)N1CC[C@@H]2[C@H]1[C@@H](c1c[nH]c3cc(F)ccc13)CN2C(C)=O` [Example 64, N-{2-[4-Acetyl-6-(6-fluoro-1H-indol-3-yl)-hexahydro-pyrrolo[3,2-b]pyrrol-1-yl]-1-methoxymethyl-2-oxo-ethyl}-2-methylamino-propionamide], for which the figures for the dissociation constant (Kd) on XIAP BIR-3 and at cIAP-1 BIR-3 were 100 to 1000 nM and < 100 nM, respectively. In addition, in the assay on SK-OV-3 cells, the CC50 lay in the range of 100 to 1000 nM.
For `CN[C@@H](C)C(=O)N[C@H](C(=O)N1CC[C@@H]2[C@H]1[C@@H](c1c[nH]c3cc(F)ccc13)CN2C(C)=O)[C@@H](C)O` [Example 65, N-{1-[4-Acetyl-6-(6-fluoro-1H-indol-3-yl)-hexahydro-pyrrolo[3,2-b]pyrrole-1-carbonyl]-2-hydroxy-propyl}-2-methylamino-propionamide], the Kd on XIAP BIR-3 and on cIAP-1 BIR-3 was < 100 nM in each case. For the same compound, the CC50 in the assay on SK-OV-3 cells is 100 to 1000 nM.
As to `CN[C@@H](C)C(=O)N[C@H](C(=O)N1CC[C@@H]2[C@H]1[C@@H](c1c[nH]c3cc(F)ccc13)CN2C(C)=O)[C@@H](C)OC` [Example 66, N-{1-[4-Acetyl-6-(6-fluoro-1H-indol-3-yl)-hexahydro-pyrrolo[3,2-b]pyrrole-1-carbonyl]-2-methoxy-propyl}-2-methylamino-propionamide], the dissociation constant Kd on XIAP BIR-3 and at cIAP-1 BIR-3 was < 100 nM in each case. Moreover, the cytotoxic concentration (CC50) in the assay on SK-OV-3 cells was < 100 nM.
Regarding `CC[C@H](NC(=O)[C@H](C)NC)C(=O)N1CC[C@@H]2[C@H]1[C@@H](c1c[nH]c3ccc(F)cc13)CN2C(C)=O` [Example 67, N-{1-[4-Acetyl-6-(5-fluoro-1H-indol-3-yl)-hexahydro-pyrrolo[3,2-b]pyrrole-1-carbonyl]-propyl}-2-methylamino-propionamide], the Kd at XIAP BIR-3 and on cIAP-1 BIR-3 was < 100 nM throughout. In the assay on SK-OV-3 cells, this compound displayed a CC50 of 100 to 1000 nM.
Regarding `CN[C@@H](C)C(=O)N[C@H](C(=O)N1CC[C@@H]2[C@H]1[C@@H](c1c[nH]c3ccc(F)cc13)CN2C(C)=O)C(C)C` [Example 68, N-{1-[4-Acetyl-6-(5-fluoro-1H-indol-3-yl)-hexahydro-pyrrolo[3,2-b]pyrrole-1-carbonyl]-2-methyl-propyl}-2-methylamino-propionamide], the equilibrium dissociation constant (Kd) at XIAP BIR-3 and on cIAP-1 BIR-3 was < 100 nM in each case. Also, in the assay on SK-OV-3 cells, the cytotoxic concentration (CC50) was < 100 nM.
Turning to `CN[C@@H](C)C(=O)N[C@H](C(=O)N1CC[C@@H]2[C@H]1[C@@H](c1c[nH]c3ccc(F)cc13)CN2C(C)=O)C(C)(C)C` [Example 69, N-{1-[4-Acetyl-6-(5-fluoro-1H-indol-3-yl)-hexahydro-pyrrolo[3,2-b]pyrrole-1-carbonyl]-2,2-dimethyl-propyl}-2-methylamino-propionamide], the Kd at XIAP BIR-3 and on cIAP-1 BIR-3 was < 100 nM throughout. In the assay on SK-OV-3 cells, the CC50 is < 100 nM.
For the compound `CN[C@@H](C)C(=O)N[C@H](C(=O)N1CC[C@@H]2[C@H]1[C@@H](c1c[nH]c3ccc(F)cc13)CN2C(C)=O)C1CCCCC1` [Example 70, N-{2-[4-Acetyl-6-(5-fluoro-1H-indol-3-yl)-hexahydro-pyrrolo[3,2-b]pyrrol-1-yl]-1-cyclohexyl-2-oxo-ethyl}-2-methylamino-propionamide], the dissociation constant (Kd) on XIAP BIR-3 and on cIAP-1 BIR-3 was < 100 nM in each case. For the same compound, the half-maximal cytotoxic concentration (CC50) in the assay on SK-OV-3 cells is < 100 nM.
`CN[C@@H](C)C(=O)N[C@H](C(=O)N1CC[C@@H]2[C@H]1[C@@H](c1c[nH]c3ccc(F)cc13)CN2C(C)=O)[C@@H](C)OC` [Example 71, N-{1-[4-Acetyl-6-(5-fluoro-1H-indol-3-yl)-hexahydro-pyrrolo[3,2-b]pyrrole-1-carbonyl]-2-methoxy-propyl}-2-methylamino-propionamide]: the dissociation constant Kd on XIAP BIR-3 and on cIAP-1 BIR-3 was < 100 nM in each case. Moreover, the CC50 in the assay on SK-OV-3 cells is < 100 nM.
With `CN[C@@H](C)C(=O)N[C@@H](COC)C(=O)N1CC[C@@H]2[C@H]1[C@@H](c1c[nH]c3ccc(F)cc13)CN2C(C)=O` [Example 72, N-{2-[4-Acetyl-6-(5-fluoro-1H-indol-3-yl)-hexahydro-pyrrolo[3,2-b]pyrrol-1-yl]-1-methoxymethyl-2-oxo-ethyl}-2-methylamino-propionamide], the Kd at XIAP BIR-3 and on cIAP-1 BIR-3 was < 100 nM each time. In the assay on SK-OV-3 cells, this compound came in with a CC50 of 1000 to 10000 nM.
For `CN[C@@H](C)C(=O)N[C@@H](CO)C(=O)N1CC[C@@H]2[C@H]1[C@@H](c1c[nH]c3ccc(F)cc13)CN2C(C)=O` [Example 73, N-{2-[4-Acetyl-6-(5-fluoro-1H-indol-3-yl)-hexahydro-pyrrolo[3,2-b]pyrrol-1-yl]-1-hydroxymethyl-2-oxo-ethyl}-2-methylamino-propionamide], the Kd at XIAP BIR-3 and at cIAP-1 BIR-3 was < 100 nM in each case. The compound also gave a 50% cytotoxic concentration (CC50) in the assay with SK-OV-3 cells of 1000 to 10000 nM.
